Assay [1] deals with P. aeruginosa (ATCC27853). Nature of the assay: MIC against P. aeruginosa. To be noted: Pseudomonas aeruginosa, ATCC27853; Gram −; 16 h, 37° C. The class given is cell-based. On the procedure:
(§1) Minimum Inhibitory Concentrations (MICs) Against Bacteria.
(§2) The antimicrobial activity of the compounds was tested on the following six bacteria strains: K. pneumoniae (ATCC 13383), P. aeruginosa (ATCC27853), E. coli (ATCC 25922), vancomycin-resistant Enterococcus faecalis(ATCC 700802), Methicillin-resistant S. aureus (MRSA, ATCC 33591), Methicillin-resistant S. epidermidis (MRSE, RP62A). The procedures were followed as reported previously (Hancock et al., Immunobiology 2006, 211, 315-322). Briefly, a single colony of each bacterium was inoculated in 3 mL TSB medium and incubated overnight at 37° C. Then the bacteria culture was diluted at 1:100 and the bacteria were allowed to grow to mid-logarithmic phase. Next, 50 μL of 2-fold serial dilutions of compounds (0.1-25 μg/mL) were added the 96-well plate containing aliquots of 50 μL of bacteria suspension (1×10^6 CFU/mL) in each well. The mixture was incubated at 37° C. for 16 h, and their absorption at 600 nm wavelength was read on a Biotek Synergy HT microtiter plate reader. […] The experiments were repeated at least three times with duplicates each time. HC50 means the concentration causing 50% hemolysis.

Assay [2] concerns Methicillin-resistant S. epidermidis (MRSE, RP62A). Put plainly: MIC against MRSE. The class given is cell-based. To be noted: Staphylococcus epidermidis, MRSE; Gram +; 16 h, 37° C. On the procedure:
as §1, §2

A further assay relates to MRSA. Nature of the assay: Drug-resistance study, 14 passages, MRSA. The class given is cell-based, S. aureus. The following applies: half-MIC exposure, 14 successive passages. Here is the method:
(§3) Bacterial resistance tests were conducted using compound 12. The compound was incubated with either MRSA or E. Coli in the well at the concentration of half-MIC (½ MIC, 10^6 CFU/ml) every day and tested for their activity through 14 successive passages.

For assay [3], the system named is E. coli. Put plainly: Time-kill study. The class given is cell-based. The following applies: 12.5 μg/mL. On the procedure: The killing activity was monitored for the first 2 h. The concentrations for compound 11 were 2×MIC, 4×MIC, and 8×MIC, respectively.
Time-kill studies were conducted to investigate the bacterial killing kinetics of compounds 11 and 12 by using E. Coli. Briefly, the bacteria […] grew to mid-logarithmic phase in TSB medium, from which the suspension (10^6 CFU/ml) was made. The suspension was incubated with different concentrations of 11 or 12 for 10 min, 30 min, 1 h and 2 h respectively. The mixtures were diluted by 10^2 to 10^4 fold and spread on TSB agar plates. After incubation at 37° C. overnight, the colonies on the plates were counted and plotted against the incubation time. […] Cell colonies were counted in agar plates at 12.5, 25, and 50 μg/mL. Compound 11 at the concentration of 12.5 or 25 μg/mL completely removed all bacteria in 2 hours, and at 50 μg/mL it completely removed bacteria in 0.5 hour. Compound 12 killed E. Coli completely in 0.5 hour at the concentration of 12.5 μg/mL.

For assay [4], the system named is six bacteria strains (K. pneumoniae, P. aeruginosa, E. coli, VRE, MRSA, MRSE). Nature of the assay: Antimicrobial activity on the panel of six bacteria strains. The class given is cell-based. On the procedure: as §1, §2
Another assay relates to E. coli (ATCC 25922). Nature of the assay: MIC against E. coli. The class given is cell-based. To be noted: Escherichia coli, ATCC25922; Gram −; 16 h, 37° C. On the procedure:
as §1, §2

Assay [5] has as its system E. coli. Put plainly: Fluorescence microscopy (DAPI/PI) of bacterial membranes, E. coli. The class given is cell-based. To be noted: 10 μg/mL, 2 h, 37° C. Here is the method:
(§4) Fluorescence microscopy studies were conducted to evaluate the ability of compound 12 to compromise membranes of S. aureus (Gram-positive bacterium) and E. coli (Gram-negative bacterium). Fluorescent agent 4′,6-diamidino-2-phenylindole (DAPI) was used to stain membranes of bacterial cells with blue fluorescence regardless of cell viability, and the red fluorescence of propidium iodide (PI) due to the DNA intercalation was used to stain impaired membranes. After MRSA and E. Coli grew to mid-logarithmic phase, the compound 12 was incubated with the bacteria at 37° C. for 2 h. The mixture was then centrifuged at 5000 rpm for 15 min. The cell pellets were washed with the PBS buffer for three times, and incubated with PI ([…]) and DAPI (10 μg/mL) for 15 min sequentially on ice in the dark. The mixture was then centrifuged and the pellets were washed with the PBS buffer. Next, 10 μL of the samples were placed on chamber slides and observed under Zeiss Axio Image Zloptical microscope using 100× oil-immersion objective.

In another assay the test system is S. aureus. Put plainly: Fluorescence microscopy (DAPI/PI) of bacterial membranes, S. aureus. The class given is cell-based. The following applies: 2 h. On the procedure:
as §4

In assay [6] the test system is human red blood cells (hRBCs). Put plainly: Hemolytic assay. The class given is cell-based. On the procedure: The freshly drawn, K2EDTA treated human red blood cells (hRBCs) were washed with 1×PBS buffer, and centrifuged at 3500 rpm for 10 min. The step was repeated until the supernatant became clear. The supernatant was removed, and the RBCs were diluted into 5% v/v suspension. 50 μL of the suspension was incubated with 50 μL of compounds of different concentrations at 37° C. for 1 h. The mixture was centrifuged at 3500 rpm for 10 min. Subsequently, to 30 μL of the supernatant 100 μL PBS was added, and the absorbance of the mixture at 540 nm was read on a Biotek Synergy HT plate reader. The positive control was 2% Triton X-100, and the negative control was 1×PBS alone. The hemolysis activity was calculated by the formula % hemolysis=(Abssample−AbsPBS)/(AbsTriton−AbsPBS)×100%. The experiment was repeated at least three times with duplicates each time.

Assay [7] deals with E. coli. Put plainly: Drug-resistance study, 14 passages, E. coli. The following applies: half-MIC exposure, 14 successive passages. The class given is cell-based. On the procedure:
as §3

The subject of assay [8] is Methicillin-resistant S. aureus (MRSA, ATCC 33591). Put plainly: MIC against MRSA. The class given is cell-based. The following applies: Staphylococcus aureus; Gram +; 16 h, 37° C. Here is the method: as §1, §2

What is called MIC is the smallest concentration in the dilution series that meets the test's criterion for growth inhibition. Turning to `CCCCCCN1C(=N)N(CC(=O)Nc2cccc(NC(=O)CN3C[C@H](Cc4ccccc4)N(CCCCCC)C3=N)c2)C[C@@H]1Cc1ccccc1` [Compound 12], the MIC stood at 4 mg/L in [1]; 0.75 mg/L in assay [2]; 0.75 mg/L in assay [4] (read-out: MIC toward most strains); 0.75 mg/L in the assay with E. coli (ATCC 25922); 0.16 mg/L in assay [8]. Moreover, the “MIC after 14 passages” value against MRSA and against E. coli [7] was “virtually constant” throughout. In addition, in the assay with E. coli [3], the “time to completely remove all bacteria” value amounted to 0.5 h. Also, the “antibacterial activity against the tested bacteria (in words)” value in assay [4] is “potent and broad-spectrum activity”. The “membrane integrity of E. coli (PI red fluorescence)” value with E. coli [5] was “disrupted”. The “membrane integrity of S. aureus (PI red fluorescence)” value with S. aureus (10 μg/mL, 37° C.) is “disrupted”. In the assay with S. aureus (in the presence of compound), the “aggregation of S. aureus” value is “significant aggregation”. Moreover, the “selectivity, hemolytic activity against MIC values of MRSA” value in assay [6] is recorded as 1534 folds.

The values above are taken from patent US10144713B1, “Bis-cyclic guanidines as antibacterial agents” (UNIVERSITY OF SOUTH FLORIDA, priority 2017, dated 2018).
